Results as given in article PMC5912893 (Journal of medicinal chemistry, 2018).

Columns and labels:
[1] = molecular target: purified tubulin (Sus scrofa, UniProt P02550+P02554); test: Cell-free microtubule polymerization assay; assay type: biochemical, porcine; settings: tubulin 3.33 mg/mL, absorbance 340 nm, 37 °C, 50 min
[2] = system: A375 xenograft; test: A375 melanoma xenograft model in nude mice; assay type: in vivo; settings: for apoptosis in tumors (cleaved caspase 3 IHC): IHC staining
[3] = system: PC-3/TxR xenograft; test: Paclitaxel resistant PC-3/TxR prostate cancer xenograft model in nude mice; assay type: in vivo; settings: for effect on tumor growth (in words): vs vehicle
[4] = system: PC-3 xenograft; settings: nude mice
[5] = system: WM164 melanoma cells; test: Confocal immunofluorescent microscopy of microtubule networks; assay type: cell-based, human; settings: 100 nM, 18 h
[6] = system: A375, M14, and RPMI7951; test: Cytotoxic activity against three human malignant melanoma cell lines; settings: read-out: IC50 (approximate, three melanoma cell lines)
[7] = system: RPMI7951; test: Wound healing assay, RPMI7951 cells; assay type: cell-based, human; settings: 18 h, untreated control 71.8%

Sequence of purified tubulin (P02554 whole entry): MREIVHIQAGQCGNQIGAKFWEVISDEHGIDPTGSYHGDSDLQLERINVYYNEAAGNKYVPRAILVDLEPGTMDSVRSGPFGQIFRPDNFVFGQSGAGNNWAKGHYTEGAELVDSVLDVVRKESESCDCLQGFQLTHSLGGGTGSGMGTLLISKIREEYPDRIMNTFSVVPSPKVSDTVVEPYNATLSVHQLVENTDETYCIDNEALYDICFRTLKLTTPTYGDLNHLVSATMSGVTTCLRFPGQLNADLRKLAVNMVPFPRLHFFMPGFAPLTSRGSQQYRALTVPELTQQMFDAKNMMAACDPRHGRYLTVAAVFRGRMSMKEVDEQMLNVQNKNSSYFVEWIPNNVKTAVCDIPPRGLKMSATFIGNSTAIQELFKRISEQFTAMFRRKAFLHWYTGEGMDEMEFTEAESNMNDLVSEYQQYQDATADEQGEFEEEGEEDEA
Sequence of purified tubulin (P02550 whole entry): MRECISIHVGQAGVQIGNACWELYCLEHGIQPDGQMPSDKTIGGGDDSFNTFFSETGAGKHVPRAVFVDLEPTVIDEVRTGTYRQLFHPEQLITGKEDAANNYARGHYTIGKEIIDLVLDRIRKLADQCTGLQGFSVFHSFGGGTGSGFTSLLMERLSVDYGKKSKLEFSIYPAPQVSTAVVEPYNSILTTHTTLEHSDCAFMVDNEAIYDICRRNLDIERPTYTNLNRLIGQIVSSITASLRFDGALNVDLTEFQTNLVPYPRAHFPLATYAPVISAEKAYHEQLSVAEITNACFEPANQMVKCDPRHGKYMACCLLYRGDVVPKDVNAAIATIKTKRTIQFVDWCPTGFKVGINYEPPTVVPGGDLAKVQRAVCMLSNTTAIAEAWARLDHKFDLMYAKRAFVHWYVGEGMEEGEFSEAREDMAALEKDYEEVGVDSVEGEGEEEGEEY

Row | Structure (SMILES) | effect on tubulin polymerization [1] | microvessel density in tumors (CD31 staining) [2] | apoptosis in tumors (cleaved caspase 3 IHC) [2] | IC50 [6] [nM] | also measured
1 | CC(=O)O[C@H]1C(=O)[C@@]2(C)[C@H]([C@H](OC(=O)c3ccccc3)[C@]3(O)C[C@H](OC(=O)[C@H](O)[C@@H](NC(=O)c4ccccc4)c4ccccc4)C(C)=C1C3(C)C)[C@]1(OC(C)=O)CO[C@@H]1C[C@@H]2O [paclitaxel, reference compound] | greatest polymerization | less microvessel density | increase in the number of cells undergoing apoptosis | – | mouse body weight [3]: began to drop considerably after 2 weeks of treatment; effect on tumor growth (in words) [3]: no difference in tumor growth; susceptibility of nonresistant tumors to treatment [4]: highly susceptible
2 | CC(=O)O[C@@]12CO[C@@H]1C[C@H](O)[C@@]1(C)C(=O)[C@H](O)C3=C(C)[C@@H](OC(=O)[C@H](O)[C@@H](NC(=O)OC(C)(C)C)c4ccccc4)C[C@@](O)([C@@H](OC(=O)c4ccccc4)[C@H]21)C3(C)C [docetaxel, reference compound] | – | – | – | – | effect on microtubule networks [5]: dense tubulin accretion, representative of aggressive polymerization
3 | COc1ccc2c(c1)C(O)CCN2c1nc(Cl)nc2ncccc12 (stereo not drawn) [compound 17, 1-(2-Chloropyrido[2,3-d]pyrimidin-4-yl)-6-methoxy-1,2,3,4-tetrahydroquinolin-4-ol] | – | – | – | ~30 | –
4 | COc1ccc2c(c1)CCCN2c1nc(Cl)nc2ncccc12 [4a, 2-Chloro-4-(6-methoxy-3,4-dihydroquinolin-1(2H)-yl)pyrido-[2,3-d]pyrimidine] | effectively inhibited tubulin polymerization in a dose-dependent manner | less microvessel density | increase in the number of cells undergoing apoptosis | ~6 | effect on microtubule networks [5]: causes fragmentation of the microtubules, decreases polymeric tubulin filaments, and increases cytoplasmic soluble tubulin; effect on tumor growth (in words) [3]: significant decrease in tumor volume
5 | COc1ccc2c(c1)CCCN2c1nc(Cl)nc2ccoc12 [6a, 2-Chloro-4-(6-methoxy-3,4-dihydroquinolin-1(2H)-yl)furo[3,2-d]pyrimidine] | effectively inhibited tubulin polymerization in a dose-dependent manner | less microvessel density | increase in the number of cells undergoing apoptosis | ~3 | –
6 | COc1ccc2c(c1)OCCN2c1nc(Cl)nc2ncccc12 [compound 19, 4-(2-Chloropyrido[2,3-d]pyrimidin-4-yl)-7-methoxy-3,4-dihydro-2H-benzo[b][1,4]oxazine] | – | – | – | 298 | –
7 | COc1cc2c(c(OC)c1OC)-c1ccc(OC)c(=O)cc1[C@@H](NC(C)=O)CC2 [colchicine] | – | – | – | – | wound closure, RPMI7951, 5 nM [7]: a significant decrease in migration was not observed
8 | COc1ccc(N(C)c2nc(Cl)nc3ncccc23)cc1OC [21a, 2-Chloro-N-(3,4-dimethoxyphenyl)-N-methylpyrido[2,3-d]-pyrimidin-4-amine] | – | – | – | 45 | –
